Numbers after ± are expanded uncertainties.
Experiments:
[1] = activity coefficient (dimensionless); of the first substance listed, at infinite dilution; xn = mol fraction of the nth substance listed; settings: 101.3 kPa, Liquid, Differential ebulliometry, x1 = 0
[2] = xn = mol fraction of the nth substance listed; settings: 308.15 K, 101.3 kPa, Liquid
[3] = 308.15 K; 101.3 kPa; Liquid
[4] = refractive index (Na D-line) (dimensionless); settings: 101.33 kPa, Liquid, Standard Abbe refractometry

Cc1ccccc1O [2-methylphenol] + CCCCCCCCC
Settings	activity coefficient	mass density [kg/m3]
[1], 373.15 K	5.84 ± 0.82	–
[1], 393.15 K	4.58 ± 0.64	–
[1], 413.15 K	3.8 ± 0.5	–
[2], x1 = 0.0661	–	719.58 ± 0.37
[2], x1 = 0.0684	–	720.02 ± 0.37
[2], x1 = 0.1489	–	736.5 ± 0.36
[2], x1 = 0.2085	–	749.6 ± 0.35
[2], x1 = 0.2703	–	764.08 ± 0.35
[2], x1 = 0.3994	–	797.32 ± 0.35
[2], x1 = 0.4008	–	797.69 ± 0.35
[2], x1 = 0.4688	–	817.04 ± 0.36
[2], x1 = 0.5237	–	833.66 ± 0.37
[2], x1 = 0.5941	–	856.51 ± 0.36
[2], x1 = 0.6631	–	880.76 ± 0.37
[2], x1 = 0.7323	–	906.98 ± 0.38
[2], x1 = 0.8106	–	939.53 ± 0.39
[2], x1 = 0.8674	–	965.12 ± 0.41
[2], x1 = 0.9285	–	994.76 ± 0.44
[2], x1 = 1	–	1032.73 ± 0.49

CCCCCCCCC [nonane]
Settings	mass density [kg/m3]
[3]	707.41 ± 0.38

Settings	refractive index
[4], 293.15 K	1.4058 ± 0.0007

Cc1ccccc1O [2-methylphenol] + CCCCCCCCCCC
Settings	activity coefficient, 393.15 K	activity coefficient, 413.15 K	activity coefficient, 433.15 K	mass density, x1 = 1 [kg/m3]
[1]	4.47 ± 0.63	3.77 ± 0.53	2.85 ± 0.4	–
[2]	–	–	–	1032.73 ± 0.49

Cc1ccccc1O [2-methylphenol]
Settings	mass density [kg/m3]
[3]	1032.73 ± 0.49

Settings	refractive index
[4], 308.15 K	1.5386 ± 0.0007

Cc1cccc(O)c1 [3-methylphenol]
Settings	mass density [kg/m3]
[3]	1022.02 ± 0.13

Settings	refractive index
[4], 293.15 K	1.5401 ± 0.0007

Cc1cccc(O)c1 [3-methylphenol] + CCCCCCCCC
Settings	activity coefficient	mass density [kg/m3]
[1], 373.15 K	9.21 ± 1.3	–
[1], 393.15 K	7.06 ± 0.99	–
[1], 413.15 K	5.96 ± 0.83	–
[2], x1 = 0.1021	–	726.54 ± 0.36
[2], x1 = 0.1998	–	747.24 ± 0.34
[2], x1 = 0.302	–	770.94 ± 0.33
[2], x1 = 0.4021	–	796.76 ± 0.31
[2], x1 = 0.5	–	825 ± 0.31
[2], x1 = 0.7	–	892.22 ± 0.23
[2], x1 = 0.9	–	974.43 ± 0.14
[2], x1 = 1	–	1022.02 ± 0.13

CCCCCCCCCCCC [dodecane]
Settings	mass density [kg/m3]
[3]	738.63 ± 0.36

Settings	refractive index
[4], 293.15 K	1.421 ± 0.0007

Cc1ccccc1O [2-methylphenol] + CCCCCCCCCC
Settings	activity coefficient	mass density [kg/m3]
[1], 393.15 K	4.15 ± 0.58	–
[1], 413.15 K	3.49 ± 0.49	–
[1], 433.15 K	3.04 ± 0.43	–
[2], x1 = 0.0637	–	730.49 ± 0.42
[2], x1 = 0.0908	–	735.2 ± 0.42
[2], x1 = 0.162	–	748.33 ± 0.42
[2], x1 = 0.2086	–	757.57 ± 0.42
[2], x1 = 0.272	–	770.9 ± 0.41
[2], x1 = 0.3186	–	781.32 ± 0.42
[2], x1 = 0.4014	–	801.21 ± 0.42
[2], x1 = 0.4707	–	819.47 ± 0.43
[2], x1 = 0.529	–	836.06 ± 0.43
[2], x1 = 0.6014	–	858.4 ± 0.43
[2], x1 = 0.6596	–	878.02 ± 0.43
[2], x1 = 0.7379	–	906.95 ± 0.43
[2], x1 = 0.7876	–	927.04 ± 0.43
[2], x1 = 0.8714	–	964.58 ± 0.44
[2], x1 = 0.9348	–	996.28 ± 0.45
[2], x1 = 0.9617	–	1010.78 ± 0.47
[2], x1 = 1	–	1032.73 ± 0.49

Cc1cccc(O)c1 [3-methylphenol] + CCCCCCCCCCC
Settings	activity coefficient	mass density [kg/m3]
[1], 393.15 K	6.25 ± 0.88	–
[1], 413.15 K	4.9 ± 0.69	–
[1], 433.15 K	3.93 ± 0.55	–
[2], x1 = 0.1287	–	748.52 ± 0.34
[2], x1 = 0.1853	–	758.11 ± 0.33
[2], x1 = 0.3395	–	787.84 ± 0.31
[2], x1 = 0.389	–	798.63 ± 0.3
[2], x1 = 0.5024	–	826.11 ± 0.29
[2], x1 = 0.6023	–	854.21 ± 0.26
[2], x1 = 0.6949	–	884.19 ± 0.23
[2], x1 = 0.8	–	923.73 ± 0.19
[2], x1 = 0.9	–	968.61 ± 0.14
[2], x1 = 1	–	1022.02 ± 0.13

CCCCCCCCCC [decane]
Settings	mass density [kg/m3]
[3]	720.24 ± 0.42

Settings	refractive index
[4], 308.15 K	1.4055 ± 0.0007

CCCCCCCCCCC [undecane]
Settings	mass density [kg/m3]
[3]	729.13 ± 0.36

Settings	refractive index
[4], 293.15 K	1.4164 ± 0.0007
